Tests used:
[1] = system: mice subjected to histotoxic hypoxia induced by potassium cyanide; experiment: KCN hypoxia (i.p.) in mice (survival time); format: in vivo, CD1 male mice; conditions: KCN 15 mg/kg i.p.
[2] = system: rats subjected to histotoxic hypoxia induced by potassium cyanide; experiment: KCN (i.v.) hypoxia in rats (survival time); format: in vivo, Wistar male rats; conditions: rats, KCN 4 mg/kg i.v.
[3] = compound i.p. dose 3, first i.p. series
[4] = compound i.p. dose 10, first i.p. series
[5] = compound i.p. dose 30, first i.p. series (control 106 ± 9)
[6] = compound i.p. dose 30, second i.p. series (control 91 ± 4)
[7] = compound i.p. dose 50, second i.p. series
[8] = compound i.p. dose 75, second i.p. series

CCNC1=Nc2ccc(Cl)cc2C(C)(c2ccccc2)O1.Cl (stereo not drawn) [etifoxine, 6-chloro-2-ethylamino-4-methyl-4-phenyl-4H-[3,1]benzoxazine hydrochloride]
Percentage variation [1, 3]: +15% | Survival time in seconds (m ± sem) [1, 3]: 122 ± 7 s | Percentage variation [1, 4]: +7% | Survival time in seconds (m ± sem) [1, 4]: 113 ± 5 s | Percentage variation [1, 5]: +22% | Survival time in seconds (m ± sem) [1, 5]: 129 ± 11 s | Percentage variation [1, 6]: +19% | Survival time in seconds (m ± sem) [1, 6]: 108 ± 4 s | Percentage variation [1, 7]: +36% | Survival time in seconds (m ± sem) [1, 7]: 124 ± 8 s | Percentage variation [1, 8]: +46% | Survival time in seconds (m ± sem) [1, 8]: 133 ± 6 s | Percentage variation ([1]; compound p.o. dose 100): −13% | Survival time in seconds (m ± sem) ([1]; compound p.o. dose 100): 94 ± 6 s | Percentage variation ([1]; compound p.o. dose 200): +14% | Survival time in seconds (m ± sem) ([1]; compound p.o. dose 200): 123 ± 12 s | Percentage variation ([1]; compound p.o. dose 300): −6% | Survival time in seconds (m ± sem) ([1]; compound p.o. dose 300): 102 ± 7 s | survival time ([1]; oral administration): did not significantly affect survival time | time to death ([1]; over 50 mg/kg i.p.): significantly increased the time to death | Percentage variation ([2]; compound i.p. dose 30): +7% | Survival time in seconds (m ± sem) ([2]; compound i.p. dose 30): 60.3 ± 2.0 s | Percentage variation ([2]; compound i.p. dose 50): +90% | Survival time in seconds (m ± sem) ([2]; compound i.p. dose 50): 107.3 ± 6.1 s | Percentage variation ([2]; compound i.p. dose 75): +155% | Survival time in seconds (m ± sem) ([2]; compound i.p. dose 75): 144.3 ± 11.5 s | Percentage variation ([2]; compound p.o. dose 50): +7% | Survival time in seconds (m ± sem) ([2]; compound p.o. dose 50): 59.5 ± 2.1 s | Percentage variation ([2]; compound p.o. dose 100): +8% | Survival time in seconds (m ± sem) ([2]; compound p.o. dose 100): 60.1 ± 1.2 s | Percentage variation ([2]; compound p.o. dose 200): +15% | Survival time in seconds (m ± sem) ([2]; compound p.o. dose 200): 63.9 ± 2.0 s | time to death ([2]; from 50 mg/kg i.p. and 200 mg/kg p.o.): significantly increased the time to death

From patent US8338410B2, “Neuroprotective compounds and pharmaceutical compositions comprising them” (Biocodex, priority 2005, dated 2012)
